Values quoted from earlier work, collected in patent US20080221049A1, “Free-flowing lyophilized tobramycin formulation” (APP Pharmaceuticals, LLC., priority 2004, published 2008).
Structures can show the parent of a compound that is named as a salt. Where two headings read alike, the source gives them in different places.

Details: after reconstitution, e.g. with 30 mL Sterile Water for Injection

## NCC1OC(OC2C(N)CC(N)C(OC3OC(CO)C(O)C(N)C3O)C2O)C(N)CC1O [Tobramycin sulfate, 0-3-amino-3-deoxy-α-D-glucopyranosyl-(1→4) —O—[2,6-diamino-2,3,6-trideoxy-α-D-ribo-hexopyranosyl-(1→6)]-2-deoxy-L-streptamine, sulfate (2:5)(salt)]
Stored at room temperature
  time within which the reconstituted solution should be used: ≤ 24 h
Stored under refrigeration
  time within which the reconstituted solution should be used: ≤ 96 h
